Non-standard residues stand in square brackets, D forms with d. Residues, ends and D or L forms follow the SMILES beside them. 1Nal = N[C@@H](Cc1cccc2ccccc12)C(=O)O; Aib = CC(C)(N)C(=O)O
Experiments:
[1] = biological target: T1, LCAT (purified from human plasma) (Homo sapiens, UniProt P04180); assay: LCAT activation assay; type: biochemical; conditions: LCAT activation as compared with native human ApoA-I (= 100%), equivalent masses
T1 construct: from tissue; host or cells: human plasma
T1 sequence (P04180 25-440): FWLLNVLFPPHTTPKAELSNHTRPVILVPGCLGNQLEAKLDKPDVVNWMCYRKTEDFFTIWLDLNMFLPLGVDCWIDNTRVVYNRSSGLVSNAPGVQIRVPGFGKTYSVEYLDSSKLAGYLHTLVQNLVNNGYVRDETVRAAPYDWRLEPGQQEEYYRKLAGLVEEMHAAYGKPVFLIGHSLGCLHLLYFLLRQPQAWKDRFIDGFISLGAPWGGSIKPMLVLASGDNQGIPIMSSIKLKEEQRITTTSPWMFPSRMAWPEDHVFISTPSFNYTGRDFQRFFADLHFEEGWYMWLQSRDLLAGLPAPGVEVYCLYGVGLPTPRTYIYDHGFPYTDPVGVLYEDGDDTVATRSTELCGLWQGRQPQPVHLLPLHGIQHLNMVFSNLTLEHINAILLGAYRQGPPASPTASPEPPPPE
Method in brief: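 Substrate SUVs of EPC or POPC with 14C-cholesterol (20:1 molar ratio), in 10 mM Tris, 0.14 M NaCl, 1 mM EDTA, pH 7.4, were preincubated with peptide or equal mass of plasma ApoA-I. Reaction started with human plasma LCAT; activation was measured as cholesterol-to-ester conversion relative to ApoA-I (100%).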

[2] = Circular dichroism helicity determination; type: physicochemical; conditions: percent helicity; for He (%) TFE: 5 μM peptide, 90% vol TFE; for He (%) TFE / He (%) SUVs: 37° C.; for He (%) free: unbound peptide 5 μM in 5 mM phosphate buffer, pH 7.4, 37° C.; for He (%) SUVs: peptide-SUV complexes (20:1 EPC:Chol., Ri=30 and Ri=50); for He (%) mics: peptide-micelle complexes, Ri=100, 37° C.
Method in brief: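 Far-UV CD (190–260 nm) at 37° C on 5 μM peptide in 5 mM phosphate pH 7.4, free, with EPC:Chol 20:1 SUVs (Ri 30 or 50), lysophosphatidylcholine micelles (Ri 100) or 90% TFE. Spectra converted to molar ellipticity per residue; helicity from 222 nm ellipticity or CONTIN fitting to reference spectra, ±5%.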

Row | ACTIVITY (%) LCAT [1] [%] | He (%) TFE [2] [%] | He (%) free [2] [%] | He (%) SUVs [2] [%] | He (%) mics [2] [%] | Compound
1 | 5 | 81 | 52 | 63 | 85 | CC(C)C[C@@H](NC(=O)[C@@H](C)NC(=O)[C@@H](CCC(=O)O)NC(=O)[C@@H](CC(C)C)NC(=O)C(C)(C)NC(=O)[C@@H](CCC(=O)O)NC(=O)[C@@H](CC(N)=O)NC(=O)[C@@H](CC(C)C)NC(=O)[C@@H](CC(C)C)NC(=O)[C@@H](CCC(=O)O)NC(=O)[C@@H](CCCNC(=N)N)NC(=O)[C@@H](Cc1ccccc1)NC(=O)[C@@H](CC(C)C)NC(=O)[C@@H](CC(=O)O)NC(=O)[C@@H](CC(C)C)NC(=O)[C@H](NC(=O)[C@H]1CCCN1)C(C)C)C(=O)N[C@H](CCCCN)C(=O)N[C@H](CCC(N)=O)C(=O)N[C@H](CCCCN)C(=O)N[C@H](CC(C)C)C(=O)N[C@H](CCCCN)C(=O)O [compound 96, pvldlfrellneXlealkqklk] (H-[dP][dV][dL][dD][dL][dF][dR][dE][dL][dL][dN][dE][Aib][dL][dE][dA][dL][dK][dQ][dK][dL][dK]-OH)
2 | 2 | 80 | 72 | 80 | 88 | CC(C)C[C@H](NC(=O)[C@H](CCCCN)NC(=O)[C@H](CCC(N)=O)NC(=O)[C@H](CCCCN)NC(=O)[C@H](CC(C)C)NC(=O)[C@@H](N)CCCCN)C(=O)N[C@@H](C)C(=O)N[C@@H](CCC(=O)O)C(=O)N[C@@H](CC(C)C)C(=O)N[C@@H](CC(C)C)C(=O)N[C@@H](CCC(=O)O)C(=O)N[C@@H](CC(N)=O)C(=O)N[C@@H](CC(C)C)C(=O)N[C@@H](CC(C)C)C(=O)N[C@@H](CCC(=O)O)C(=O)N[C@@H](CCCNC(=N)N)C(=O)N[C@@H](Cc1ccccc1)C(=O)N[C@@H](CC(C)C)C(=O)N[C@@H](CC(=O)O)C(=O)N[C@@H](CC(C)C)C(=O)N[C@H](C(=O)N1CCC[C@H]1C(=O)O)C(C)C [compound 99]
3 | 2 | 98 | 83 | – | 92 | CC(C)C[C@@H](NC(=O)[C@@H](C)NC(=O)[C@@H](CCC(=O)O)NC(=O)[C@@H](CC(C)C)NC(=O)[C@@H](CC(C)C)NC(=O)[C@@H](CCC(=O)O)NC(=O)[C@@H](CC(N)=O)NC(=O)[C@@H](CC(C)C)NC(=O)[C@@H](CC(C)C)NC(=O)[C@@H](CCC(=O)O)NC(=O)[C@@H](CCCNC(=N)N)NC(=O)[C@@H](Cc1ccccc1)NC(=O)[C@@H](CC(C)C)NC(=O)[C@@H](CC(=O)O)NC(=O)[C@@H](CC(C)C)NC(=O)[C@H](NC(=O)[C@H]1CCCN1)C(C)C)C(=O)N[C@H](CCCCN)C(=O)N[C@H](CCC(N)=O)C(=O)N[C@H](CCCCN)C(=O)N[C@H](CC(C)C)C(=O)N[C@H](CCCCN)C(=O)O [compound 100, pvldlfrellnellealkqklk]
4 | 0 | 77 | – | – | – | CC(C)C[C@@H](NC(=O)[C@H](N)CCCCN)C(=O)N[C@H](CCCCN)C(=O)N[C@H](CCC(N)=O)C(=O)N[C@H](CCCCN)C(=O)N[C@H](CC(C)C)C(=O)N[C@H](C)C(=O)N[C@H](CCC(=O)O)C(=O)N[C@H](CC(C)C)C(=O)N[C@H](CC(C)C)C(=O)N[C@H](CCC(=O)O)C(=O)N[C@H](CC(N)=O)C(=O)N[C@H](CC(C)C)C(=O)N[C@H](CC(C)C)C(=O)N[C@H](CCC(=O)O)C(=O)N[C@H](CCCNC(=N)N)C(=O)N[C@H](Cc1ccccc1)C(=O)N[C@H](CC(C)C)C(=O)N[C@H](CC(=O)O)C(=O)N[C@H](CC(C)C)C(=O)N[C@@H](C(=O)N1CCC[C@@H]1C(=O)O)C(C)C [compound 107, klkqklaellenllerfldlvp]
5 | 0 | 54 | 28 | – | 55 | CC(C)C[C@H](NC(=O)[C@H](C)NC(=O)[C@H](CCC(=O)O)NC(=O)[C@H](CC(C)C)NC(=O)C(C)(C)NC(=O)[C@H](CCC(=O)O)NC(=O)[C@H](CC(N)=O)NC(=O)[C@H](CC(C)C)NC(=O)[C@H](CC(C)C)NC(=O)[C@H](Cc1c[nH]c2ccccc12)NC(=O)[C@H](CCCNC(=N)N)NC(=O)[C@H](Cc1ccccc1)NC(=O)[C@H](CC(C)C)NC(=O)[C@H](CC(=O)O)NC(=O)[C@H](CC(C)C)NC(=O)[C@@H](NC(=O)[C@@H]1CCCN1)C(C)C)C(=O)N[C@@H](CCCCN)C(=O)N[C@@H](CCC(N)=O)C(=O)N[C@@H](CCCCN)C(=O)N[C@@H](CC(C)C)C(=O)N[C@@H](CCCCN)C(=O)O [compound 108, PVLDLFRWLLNEXLEALKQKLK] (H-PVLDLFRWLLNE[Aib]LEALKQKLK-OH)
6 | 120 | 69 | 77 | 81 | 85 | CC(C)C[C@H](NC(=O)[C@H](CCCCN)NC(=O)[C@H](CCC(N)=O)NC(=O)[C@H](CCCCN)NC(=O)[C@H](CC(C)C)NC(=O)[C@H](Cc1cccc2ccccc12)NC(=O)[C@H](CCC(=O)O)NC(=O)[C@H](CC(C)C)NC(=O)[C@H](CC(C)C)NC(=O)[C@H](CCC(=O)O)NC(=O)[C@H](CC(N)=O)NC(=O)[C@H](CC(C)C)NC(=O)[C@H](CC(C)C)NC(=O)[C@H](CCC(=O)O)NC(=O)[C@H](CCCNC(=N)N)NC(=O)[C@H](Cc1ccccc1)NC(=O)[C@H](CC(C)C)NC(=O)[C@H](CC(=O)O)NC(=O)[C@H](CC(C)C)NC(=O)[C@@H](NC(=O)[C@@H]1CCCN1)C(C)C)C(=O)N[C@@H](CCCCN)C(=O)O [peptide 1, PVLDLFRELLNELLEZLKQKLK] (H-PVLDLFRELLNELLE[1Nal]LKQKLK-OH)
7 | 79 | 71 | 60 | 70 | 87 | CC(C)C[C@H](NC(=O)[C@H](CCCCN)NC(=O)[C@H](CCC(N)=O)NC(=O)[C@H](CCCCN)NC(=O)[C@H](Cc1cccc2ccccc12)NC(=O)[C@H](C)NC(=O)[C@H](CCC(=O)O)NC(=O)[C@H](CC(C)C)NC(=O)[C@H](CC(C)C)NC(=O)[C@H](CCC(=O)O)NC(=O)[C@H](CC(N)=O)NC(=O)[C@H](CC(C)C)NC(=O)[C@H](CC(C)C)NC(=O)[C@H](CCC(=O)O)NC(=O)[C@H](CCCNC(=N)N)NC(=O)[C@H](Cc1ccccc1)NC(=O)[C@H](CC(C)C)NC(=O)[C@H](CC(=O)O)NC(=O)[C@H](CC(C)C)NC(=O)[C@@H](NC(=O)[C@@H]1CCCN1)C(C)C)C(=O)N[C@@H](CCCCN)C(=O)O [peptide 10, PVLDLFRELLNELLEAZKQKLK] (H-PVLDLFRELLNELLEA[1Nal]KQKLK-OH)
8 | 61 | – | 70 | 80 | 96 | CC(C)C[C@H](NC(=O)[C@H](C)NC(=O)[C@H](CCC(=O)O)NC(=O)[C@H](CC(C)C)NC(=O)[C@H](CC(C)C)NC(=O)[C@H](CCC(=O)O)NC(=O)[C@H](CC(N)=O)NC(=O)[C@H](CC(C)C)NC(=O)[C@H](CC(C)C)NC(=O)[C@H](CCC(=O)O)NC(=O)[C@H](CCCNC(=N)N)NC(=O)[C@H](Cc1ccccc1)NC(=O)[C@H](CC(C)C)NC(=O)[C@H](CC(=O)O)NC(=O)[C@H](CC(C)C)NC(=O)[C@@H](NC(=O)[C@@H]1CCCN1)C(C)C)C(=O)N[C@@H](CCCN)C(=O)N[C@@H](CCC(N)=O)C(=O)N[C@@H](CCCN)C(=O)N[C@@H](CC(C)C)C(=O)N[C@@H](CCCN)C(=O)O [peptide 14, PVLDLFRELLNELLEALOQOLO]
9 | 51 | 93 | 46 | – | 82 | CC(C)C[C@H](NC(=O)[C@H](C)NC(=O)[C@H](CCC(=O)O)NC(=O)[C@H](CC(C)C)NC(=O)C(C)(C)NC(=O)[C@H](CCC(=O)O)NC(=O)[C@H](CC(N)=O)NC(=O)[C@H](CC(C)C)NC(=O)[C@H](CC(C)C)NC(=O)[C@H](CCC(=O)O)NC(=O)[C@H](CCCNC(=N)N)NC(=O)[C@H](Cc1ccccc1)NC(=O)[C@H](Cc1ccccc1)NC(=O)[C@H](CC(=O)O)NC(=O)[C@H](CC(C)C)NC(=O)[C@@H](NC(=O)[C@@H]1CCCN1)C(C)C)C(=O)N[C@@H](CCCCN)C(=O)N[C@@H](CCC(N)=O)C(=O)N[C@@H](CCCCN)C(=O)N[C@@H](CC(C)C)C(=O)N[C@@H](CCCCN)C(=O)O [peptide 25, PVLDFFRELLNEXLEALKQKLK] (H-PVLDFFRELLNE[Aib]LEALKQKLK-OH)

Row | Compound | ACTIVITY (%) LCAT [1] [%] | He (%) TFE [2] [%] | He (%) free [2] [%] | He (%) SUVs [2] [%] | He (%) mics [2] [%]
10 | CC(C)C[C@H](NC(=O)[C@H](C)NC(=O)[C@H](CC(=O)O)NC(=O)[C@H](CC(C)C)NC(=O)[C@H](CC(C)C)NC(=O)[C@H](CCCNC(=N)N)NC(=O)[C@H](CCC(=O)O)NC(=O)[C@H](CC(C)C)NC(=O)[C@H](CC(C)C)NC(=O)[C@H](CC(N)=O)NC(=O)[C@H](CCC(=O)O)NC(=O)[C@H](Cc1ccccc1)NC(=O)[C@H](CC(C)C)NC(=O)[C@H](CCC(=O)O)NC(=O)[C@H](CC(C)C)NC(=O)[C@@H](NC(=O)[C@H]1CCCN1)C(C)C)C(=O)N[C@@H](CCC(N)=O)C(=O)N[C@@H](CCCCN)C(=O)N[C@@H](CCCCN)C(=O)N[C@@H](CC(C)C)C(=O)N[C@@H](CCCCN)C(=O)O [peptide 144] (H-[dP]VLELFENLLERLLDALQKKLK-OH) | 111 | 95 | 89 | – | 88

— patent US7273848B2, “Apolipoprotein A-I agonists and their use to treat dyslipidemic disorders” (priority 1997, dated 2007)
